Test system: RKO p21 uninduced (proliferating) colon adenocarcinoma cells
Test: Alamar Blue cell viability assay, RKO p21 uninduced (proliferating)
Format: cell-based
Conditions: Homo sapiens, Table B3, anti-proliferative/cytotoxic activity, 72 hours, read-out: −log EC50 RKO p21 uninduced (proliferating) (converted)
Summary of the method: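 RKO p21 or p27 subclones grown without Ponasterone A, i.e. proliferating, exposed 24 h after seeding to semi-log compound dilutions in DMEM/10% FCS (1% DMSO controls) for 72 h at 37° C. Alamar Blue fluorescence (544/590 nm) read relative to untreated cells; EC50 from dose-response curves, given as −log EC50 (mol/l).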

| SMILES | EC50 |
| --- | --- |
| C[C@@]12Cc3c([nH]c4ccc(OC(F)F)cc34)[C@@H](c3cccc(O)c3)N1C(=O)N(CCNCCO)C2=O (racemic) [Example 285, (3aSR,10RS)-6-(1,1-Difluoro-methoxy)-2-[2-(2-hydroxy-ethylamino)-ethyl]-10-(3-hydroxy-phenyl)-3a-methyl-3a,4,9,10-tetrahydro-2,9,10a-triaza-cyclopenta[b]fluorene-1,3-dione] | 39.8 to 251 nM |
| C[C@@]12Cc3c([nH]c4ccc(OC(F)F)cc34)[C@@H](c3cccc(O)c3)N1C(=O)N(CCNC1CC1)C2=O (racemic) [Example 286, (3aSR,10RS)-2-(2-Cyclopropylamino-ethyl)-6-(1,1-difluoro-methoxy)-10-(3-hydroxy-phenyl)-3a-methyl-3a,4,9,10-tetrahydro-2,9,10a-triaza-cyclpenta[b]fluorene-1,3-dione] | 39.8 to 251 nM |
| C#CCNCCN1C(=O)N2[C@H](c3cccc(O)c3)c3[nH]c4ccc(OC(F)F)cc4c3C[C@@]2(C)C1=O (racemic) [Example 287, (3aSR,10RS)-6-(1,1-Difluoro-methoxy)-10-(3-hydroxy-phenyl)-3a-methyl-2-(2-prop-2-ynylamino-ethyl)-3a,4,9,10-tetrahydro-2,9,10a-triaza-cyclopenta[b]fluorene-1,3-dione] | 39.8 to 251 nM |
| CN(CCO)CCN1C(=O)N2[C@H](c3cccc(O)c3)c3[nH]c4ccc(OC(F)F)cc4c3C[C@@]2(C)C1=O (racemic) [Example 288, (3aSR,10RS)-6-(1,1-Difluoro-methoxy)-2-{2-[(2-hydroxy-ethyl)-methyl-amino]-ethyl}-10-(3-hydroxy-phenyl)-3a-methyl-3a,4,9,10-tetrahydro-2,9,10a-triaza-cyclopenta[b]fluorene-1,3-dione] | 39.8 to 251 nM |
| CCN(CCOC)CCN1C(=O)N2[C@H](c3cccc(O)c3)c3[nH]c4ccc(OC(F)F)cc4c3C[C@@]2(C)C1=O (racemic) [Example 289, (3aSR,10RS)-6-(1,1-Difluoro-methoxy)-2-{2-[ethyl-(2-methoxy-ethyl)-amino]-ethyl}-10-(3-hydroxy-phenyl)-3a-methyl-3a,4,9,10-tetrahydro-2,9,10a-triaza-cyclopenta[b]fluorene-1,3-dione] | 39.8 to 251 nM |
| C=CCN(C)CCN1C(=O)N2[C@H](c3cccc(O)c3)c3[nH]c4ccc(OC(F)F)cc4c3C[C@@]2(C)C1=O (racemic) [Example 290, (3aSR,10RS)-2-[2-(Allyl-methyl-amino)-ethyl]-6-(1,1-difluoro-methoxy)-10-(3-hydroxy-phenyl)-3a-methyl-3a,4,9,10-tetrahydro-2,9,10a-triaza-cyclopenta[b]fluorene-1,3-dione] | 39.8 to 251 nM |
| C[C@@]12Cc3c([nH]c4ccc(OC(F)F)cc34)[C@@H](c3cccc(O)c3)N1C(=O)N(CCN1CCOCC1)C2=O (racemic) [Example 292, (3aSR,10RS)-6-(1,1-Difluoro-methoxy)-10-(3-hydroxy-phenyl)-3a-methyl-2-(2-morpholin-4-yl-ethyl)-3a,4,9,10-tetrahydro-2,9,10a-triaza-cyclopenta[b]fluorene-1,3-dione] | 39.8 to 251 nM |
| CC1CCN(CCN2C(=O)N3[C@H](c4cccc(O)c4)c4[nH]c5ccc(OC(F)F)cc5c4C[C@@]3(C)C2=O)CC1 (racemic) [Example 293, (3aSR,10RS)-6-(1,1-Difluoro-methoxy)-10-(3-hydroxy-phenyl)-3a-methyl-2-[2-(4-methyl-piperidin-1-yl)-ethyl]-3a,4,9,10-tetrahydro-2,9,10a-triaza-cyclopenta[b]fluorene-1,3-dione] | 39.8 to 251 nM |
| CN1CCN(CCN2C(=O)N3[C@H](c4cccc(O)c4)c4[nH]c5ccc(OC(F)F)cc5c4C[C@@]3(C)C2=O)CC1 (racemic) [Example 294, (3aSR,10RS)-6-(1,1-Difluoro-methoxy)-10-(3-hydroxy-phenyl)-3a-methyl-2-[2-(4-methyl-piperazin-1-yl)-ethyl}-3a,4,9,10-tetrahydro-2,9,10a-triaza-cyclopenta[b]fluorene-1,3-dione] | 39.8 to 251 nM |
| CC(=O)N1CCN(CCN2C(=O)N3[C@H](c4cccc(O)c4)c4[nH]c5ccc(OC(F)F)cc5c4C[C@@]3(C)C2=O)CC1 (racemic) [Example 295, (3aSR,10RS)-2-[2-(4-Acetyl-piperazin-1-yl)-ethyl]-6-(1,1-difluoro-methoxy)-10-(3-hydroxy-phenyl)-3a-methyl-3a,4,9,10-tetrahydro-2,9,10a-triaza-cyclopenta[b]fluorene-1,3-dione] | 39.8 to 251 nM |
| CCNCCN1C(=O)N2[C@H](c3cccc(O)c3)c3[nH]c4ccc(OCC)cc4c3C[C@@]2(C)C1=O (racemic) [Example 296, (3aSR,10RS)-6-Ethoxy-2-(2-ethylamino-ethyl)-10-(3-hydroxy-phenyl)-3a-methyl-3a,4,9,10-tetrahydro-2,9,10a-triaza-cyclopenta[b]fluorene-1,3-dione] | ≤ 39.8 nM |
| CCOc1ccc2[nH]c3c(c2c1)C[C@@]1(C)C(=O)N(CCN(C)CCO)C(=O)N1[C@@H]3c1cccc(O)c1 (racemic) [Example 297, (3aSR,10RS)-6-Ethoxy-2-{2-[(2-hydroxy-ethyl)-methyl-amino]-ethyl}-10-(3-hydroxy-phenyl)-3a-methyl-3a,4,9,10-tetrahydro-2,9,10a-triaza-cyclopenta[b]fluorene-1,3-dione] | 39.8 to 251 nM |
| CCOc1ccc2[nH]c3c(c2c1)C[C@@]1(C)C(=O)N(CCN(CC)CCO)C(=O)N1[C@@H]3c1cccc(O)c1 (racemic) [Example 298, (3aSR,10RS)-6-Ethoxy-2-{2-[ethyl-(2-hydroxy-ethyl)-amino]-ethyl}-10-(3-hydroxy-phenyl)-3a-methyl-3a,4,9,10-tetrahydro-2,9,10a-triaza-cyclopenta[b]fluorene-1,3-dione] | 39.8 to 251 nM |
| CCOc1ccc2[nH]c3c(c2c1)C[C@@]1(C)C(=O)N(CCN(CC)CCOC)C(=O)N1[C@@H]3c1cccc(O)c1 (racemic) [Example 299, (3aSR,10RS)-6-Ethoxy-2-{2-[ethyl-(2-methoxy-ethyl)-amino]-ethyl}-10-(3-hydroxy-phenyl)-3a-methyl-3a,4,9,10-tetrahydro-2,9,10a-triaza-cyclopenta[b]fluorene-1,3-dione] | 39.8 to 251 nM |
| C=CCN(C)CCN1C(=O)N2[C@H](c3cccc(O)c3)c3[nH]c4ccc(OCC)cc4c3C[C@@]2(C)C1=O (racemic) [Example 300, (3aSR,10RS)-2-[2-(Allyl-methyl-amino)-ethyl]-6-ethoxy-10-(3-hydroxy-phenyl)-3a-methyl-3a,4,9,10-tetrahydro-2,9,10a-triaza-cyclopenta[b]fluorene-1,3-dione] | 39.8 to 251 nM |
| CCOc1ccc2[nH]c3c(c2c1)C[C@@]1(C)C(=O)N(CCN2CCC(C)CC2)C(=O)N1[C@@H]3c1cccc(O)c1 (racemic) [Example 302, (3aSR,10RS)-6-Ethoxy-10-(3-hydroxy-phenyl)-3a-methyl-2-[2-(4-methyl-piperidin-1-yl)-ethyl]-3a,4,9,10-tetrahydro-2,9,10a-triaza-cyclopenta[b]fluorene-1,3-dione] | 39.8 to 251 nM |
| CNCCCN1C(=O)N2[C@H](c3cccc(O)c3)c3[nH]c4cc(F)c(OC)cc4c3C[C@@]2(C)C1=O (racemic) [Example 303, (3aSR,10RS)-7-Fluoro-10-(3-hydroxy-phenyl)-6-methoxy-3a-methyl-2-(3-methylamino-propyl)-3a,4,9,10-tetrahydro-2,9,10a-triaza-cyclopenta[b]fluorene-1,3-dione] | 39.8 to 251 nM |
| COc1cc2c3c([nH]c2cc1F)[C@@H](c1cccc(O)c1)N1C(=O)N(CCCNCC2CC2)C(=O)[C@]1(C)C3 (racemic) [Example 304, (3aSR,10RS)-2-[3-(Cyclopropylmethyl-amino)-propyl]-7-fluoro-10-(3-hydroyx-phenyl)-6-methoxy-3a-methyl-3a,4,9,10-tetrahydro-2,9,10a-triaza-cyclopenta[b]fluorene-1,3-dione] | 39.8 to 251 nM |
| COc1cc2c3c([nH]c2cc1F)[C@@H](c1cccc(O)c1)N1C(=O)N(CCCNCCO)C(=O)[C@]1(C)C3 (racemic) [Example 305, (3aSR,10RS)-7-Fluoro-2-[3-(2-hydroxy-ethylamino)-propyl]-10-(3-hydroyx-phenyl)-6-methoxy-3a-methyl-3a,4,9,10-tetrahydro-2,9,10a-triaza-cyclopenta[b]fluorene-1,3-dione] | 39.8 to 251 nM |
| COCCNCCCN1C(=O)N2[C@H](c3cccc(O)c3)c3[nH]c4cc(F)c(OC)cc4c3C[C@@]2(C)C1=O (racemic) [Example 306, (3aSR,10RS)-7-Fluoro-10-(3-hydroxy-phenyl)-6-methoxy-2-[3-(2-methoxy-ethylamino)-propyl]-3a-methyl-3a,4,9,10-tetrahydro-2,9,10a-triaza-cyclopenta[b]fluorene-1,3-dione] | 39.8 to 251 nM |
| COc1cc2c3c([nH]c2cc1F)[C@@H](c1cccc(O)c1)N1C(=O)N(CCCNC(C)(C)C)C(=O)[C@]1(C)C3 (racemic) [Example 308, (3aSR,10RS)-2-(3-tert-Butylamino-propyl)-7-fluoro-10-(3-hydroxy-phenyl)-6-methoxy-3a-methyl-3a,4,9,10-tetrahydro-2,9,10a-triaza-cyclopenta[b]fluorene-1,3-dione] | 39.8 to 251 nM |
| C#CCNCCCN1C(=O)N2[C@H](c3cccc(O)c3)c3[nH]c4cc(F)c(OC)cc4c3C[C@@]2(C)C1=O (racemic) [Example 309, (3aSR,10RS)-7-Fluoro-10-(3-hydroxy-phenyl)-6-methoxy-3a-methyl-2-(3-prop-2-ynylamino-propyl)-3a,4,9,10-tetrahydro-2,9,10a-triaza-cyclopenta[b]fluorene-1,3-dione] | 39.8 to 251 nM |
| COc1cc2c3c([nH]c2cc1F)[C@@H](c1cccc(O)c1)N1C(=O)N(CCCN(C)C)C(=O)[C@]1(C)C3 (racemic) [Example 310, (3aSR,10RS)-2-(3-Dimethylamino-propyl)-7-fluoro-10-(3-hydroxy-phenyl)-6-methoxy-3a-methyl-3a,4,9,10-tetrahydro-2,9,10a-triaza-cyclopenta[b]fluorene-1,3-dione] | 39.8 to 251 nM |

From patent US8530493B2, “Indolopyridines as Eg5 kinesin modulators” (4SC AG, priority 2006, dated 2013)
